Assay results published in patent US9314510B2, “Human laminin α2 chain LG3 domain and active peptides promoting cell adhesion, spreading, migration, and neurite outgrowth” (SNU R&DB Foundation, priority 2011, dated 2016).
Ends that are not written are not given here.

B1: rLG3: recombinant His6-tagged human laminin α2 chain LG3 domain, amino acids 2537 to 2745 (protein, listed as Homo sapiens)
chain: VELSPVPIDVGTEINLSFSTKNESGIILLGSGGTPAPPRRKRRQTGQAYYVILLNRGRLEVHLSTGARTMRKIVIRPEPNLFHDGREHSVHVERTRGIFTVQVDENRRYMQNLTVEQPIEVKKLFVGGAPPEFQPSPLRNIPPFEGCIWNLVINSVPMDFARPVSFKNADIGRCAHQKLREDEDGAAPAEIVIQPEPVPTPAFPTPTPV
modifications: His6 tag

Key:
[1] = test system: PC12 cells; test: Cell migration assay (transwell migration chambers); format: cell-based, rat; conditions: transwell filters coated with laminin 5 μg/mL, rLG proteins 25 μg/mL or peptides 62.5 μg/mL, 24 h
Description: Cell migration assays were performed using transwell migration chambers of 8 μm in pore size (Corning Inc., NY) as described in a paper published previously by the present inventors (Kim, J. M., Min, S. K., Kim, H., Kang, H. K., Jung, S. Y., Lee, S. H., Choi, Y., Roh, S., Jeong, D., and Min, B. M. (2007) Int. J. Mol. Med.).
The lower sides of transwell filters were coated with laminin (5 μg/mL) or rLG proteins (25 μg/mL) for 12 h at 4° C. The lower sides of transwell filters were blocked with 1% BSA in PBS for 1 h at 37° C. Cells were suspended at a density of 4×10^5 cells/mL in RPMI 1640 medium containing 0.5% FBS and 0.1% BSA. 100 μL of this suspension was seeded in the upper chamber of the transwell filter. Cells were allowed to migrate for 24 h at 37° C. and then fixed with 10% formalin for 15 min and stained with 0.5% crystal violet. Non-migrated cells in the upper chamber of transwell filters were removed with a cotton swab, viewed under a light microscope, and counted.
Specifically, to observe cell adhesion, spreading, migration, and neurite outgrowth promotion, the methods described in Experimental examples <2-1> to <2-3> were used and PC12 cells were cultured on plates coated with laminin (5 μg/mL), rLG3 (25 μg/mL), and rLG3-M1 (25 μg/mL) and observed. To observe cell adhesion, PC12 cells were incubated on the coated plates for 1 h and to observe cell spreading, PC12 cells were incubated on the coated plates for 3 h. To observe cell migration, PC12 cells were incubated on the coated plates for […].

[2] = test system: FAK Tyr-397; test: FAK phosphorylation by western blotting; format: cell-based, rat; conditions: PC12 cells on coated dishes; 15, 30, 60 min
Description: For measuring FAK phosphorylation, specifically, PC12 cells were starved for 12 h by replacing RPMI 1640 medium with 0.1% FBS. PC12 cells (2×10^6 cells) were plated on 60-mm dishes precoated with laminin (5 μg/mL), rLG3 (25 μg/mL), or Ln2-LG3-P2 (25 μg/well), and allowed to adhere for the indicated times (15 min, 30 min, and 60 min). Cells were washed with ice-cold PBS and lysed with 200 μL of RIPA buffer (50 mM Tris-HCl, pH 7.4, 150 mM NaCl, 1 mM EDTA 1% Triton X-100, 1 mM PMSF, 2 mM Na3VO4, 1 mM glycerol phosphate) containing a protease inhibitor cocktail. RIPA lysates were denatured using SDS sample buffer (50 mM Tris/HCl, pH 6.8, 2% SDS, 10% glycerol, 0.1% bromophenol blue, 50 mM dithiothreitol) and analysed by SDS-PAGE. The separated proteins were electroblotted onto an Immobilon-P membrane (Millipore, Bedford, Mass.) and probed with primary antibodies to FAK Tyr-397 (Biosource, Camarillo, Calif.), FAK (Upstate Biotechnology Inc., Lake Placid, N.Y.). All blots were then detected with HRP-conjugated secondary antibodies (Cell Signaling). Signals were detected by ECL (iNtRON Biotechnology, Korea).

[3] = test system: PKCδ; test: Tyrosine phosphorylation of PKCδ (immunoprecipitation and Western blotting); format: cell-based, rat; conditions: PC12 cells on coated dishes, 30 min
Description: PC12 cells were incubated on dishes coated with laminin, rLG3, or the Ln2-LG3-P2 peptide for 30 min and the interaction of PKCδ with phosphotyrosine was examined using immunoprecipitation and Western blotting.

[4] = test system: Schwann cells; test: Schwann cell adhesion on coated plates; format: cell-based, human; conditions: plates coated with 62.5 μg/mL peptide, 1 h, serum-free
[5] = test system: normal human oral keratinocytes (NHOK); test: Cell adhesion to Ln2-LG3-P2-coated plates, NHOK; format: cell-based; conditions: NHOK at passage 2, 62.5 μg/mL, 1 h
Description: Normal human oral keratinocytes (NHOK) isolated from epidermal tissue of human gingiva were cultured in KGM (by Clonetics, San Diego, Calif.). Cells at passage 2 were used for the following experiments.

[6] = test system: Schwann cells; test: Schwann cell spreading on coated plates; format: cell-based, human; conditions: plates coated with 62.5 μg/mL peptide, 3 h
Description: Schwann cells, nerve cells used in the present invention, were obtained from human skin-derived precursors by differentiating the cells toward the Schwann cell lineage for two weeks and identified by immunocytochemical markers specific to Schwann cells, such as S100D and glial fibrillary acidic protein (GFAP) (Biernaskie, J. A. et al., Nat. Protoc., 2006).
Schwann cells were cultured on plates which were coated in the same way for 3 h in serum-free medium and the cell spreading of Schwann cells was observed.

[7] = test system: CV-1 cells; test: Cell adhesion to Ln2-LG3-P2-coated plates, CV-1; format: cell-based, African green monkey; conditions: 62.5 μg/mL, 1 h
Text: The normal African green monkey kidney fibroblast cell line CV-1 was purchased from the American Type Culture Collection (Manassas, Va.) and cultured in DMEM containing 10% FBS.

[8] = test system: NIH/3T3 cells; test: Cell adhesion to Ln2-LG3-P2-coated plates, NIH/3T3; format: cell-based, mouse; conditions: 62.5 μg/mL, 1 h
Text: The mouse embryo fibroblast cell line NIH/3T3 was purchased from the American Type Culture Collection (Manassas, Va.) and cultured in Dulbecco's modified Eagle's medium (DMEM) containing 10% FBS.

[9] = test system: PC12 cells; test: Inhibition of cell spreading on rLG3 by peptide pretreatment; format: cell-based, rat; conditions: PC12 cells pretreated with 500 μg/mL peptide, rLG3 25 μg/mL, 3 h
Description: (§1) PC12 cells were pretreated with 500 μg/mL of Ln2-LG3-P1, Ln2-LG3-P2, Ln2-LG3-P3, Ln2-LG3-P4, Ln2-LG3-P5 and SP (scramble peptide) (SEQ ID NO:20) for 10 min at room temperature and then cultured on plates coated with rLG3 (25 μg/mL) in serum-free medium. To observe cell adhesion, PC12 cells were incubated on the coated plates for 1 h and to observe cell spreading, PC12 cells were incubated on the coated plates for 3 h. To observe cell migration, cells were seed into the upper chamber of transwell filters coated with rLG3 (25 μg/mL) and cultured for 24 h. Cell migration was quantified by counting the number of cells that had migrated through the filter.

[10] = test system: PC12 cells; test: Inhibition of cell migration to rLG3 by peptide pretreatment; format: cell-based, rat; conditions: PC12 cells pretreated with 500 μg/mL peptide, transwell coated with rLG3 25 μg/mL, 24 h
Description: as §1

Molecule | cell migration [1] | time at which FAK phosphorylation levels at Tyr-397 peaked [2] | tyrosine phosphorylation of PKCδ [3] | Schwann cell adhesion [4] | cell adhesion activity [5] | Schwann cell spreading [6] | reduction of Schwann cell spreading compared to laminin ([6]; laminin 5 μg/mL) | cell adhesion activity [7] | cell adhesion activity [8] | inhibition of cell spreading to rLG3 protein [9] | inhibition of cell migration to rLG3 protein [10]
laminin [reference compound] | promoted cell migration | 15 min | increased | – | – | – | – | – | – | – | –
RNIPPFEGCIWN (RNIPPFEGCIWN-NH2; listed as Homo sapiens) [Ln2-LG3-P2, 12-mer peptide, position 2675 to 2686 in human laminin α2 chain] | comparable to that of rLG3 | 15 min | increased | strong effect | strong cell adhesion activity | substantially higher spreading than BSA or scrambled peptide | approximately 50% | strong cell adhesion activity | strong cell adhesion activity | inhibited cell spreading and migration | inhibited cell spreading and migration
B1 | induced cell migration significantly | 15 min | increased | – | – | – | – | – | – | – | –
